Experimental data taken from PubChem BioAssay AID2060901 (Molecular Pharmacology Branch, DTP, NCI, 2025).

Test system: 422866-222-R5-J1-PDC complex spheroids viability
Experiment: Anticancer human tumor 422866-222-R5-J1-PDC patient-derived pancreatic adenocarcinoma cell line growth inhibition [RAS]
Settings: for IC50: curve of first compound; for viability, T/C: stronger effect = lower value
Summary of the method: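 Agents were tested in combination matrices in half-log decrements from a top concentration at or near clinical Cmax (10 microM if undetermined). Targets were multi-cell spheroids of tumour lines plus HUVEC and MSC stromal cells.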
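Note: spheroids exposed to compounds for 7 days.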
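Throughout, for viability, T/C: 100% = DMSO vehicle control viability.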

With `CCc1c2c(nc3ccc(O)cc13)-c1cc3c(c(=O)n1C2)COC(=O)[C@]3(O)CC` + C#Cc1c(F)ccc2cc(O)cc(-c3ncc4c(N5CC6CCC(C5)N6)nc(OCC56CCCN5CC(F)C6)nc4c3F)c12 the IC50 (second compound 0.0316 µM) was 2.85 nM, the IC50 (second compound 0.1 µM) was 2.74 nM and the IC50 (second compound 0.316 µM) was 95.2 nM. The IC50 (second compound 1 µM) was less than 0.949 nM, the IC50 (second compound 3.16 µM) was less than 0.949 nM and the IC50 (second compound 10 µM) was less than 0.949 nM. For the same molecule, the viability, T/C (second compound 0.0316 µM, first compound 0.000949 µM) was 80.6%, the viability, T/C (second compound 0.0316 µM, first compound 0.003 µM) was 49.4% and the viability, T/C (second compound 0.0316 µM, first compound 0.00949 µM) was 39.9%. The viability, T/C (second compound 0.0316 µM, first compound 0.03 µM) was 41.9%, the viability, T/C (second compound 0.0316 µM, first compound 0.0949 µM) was 48.5% and the viability, T/C (second compound 0.0316 µM, first compound 0.3 µM) was 45.5%. It also gave a viability, T/C (second compound 0.1 µM, first compound 0.000949 µM) of 75.2%, a viability, T/C (second compound 0.1 µM, first compound 0.003 µM) of 49.4% and a viability, T/C (second compound 0.1 µM, first compound 0.00949 µM) of 35.2%. The viability, T/C (second compound 0.1 µM, first compound 0.03 µM) was 49.8%, the viability, T/C (second compound 0.1 µM, first compound 0.0949 µM) was 58.4% and the viability, T/C (second compound 0.1 µM, first compound 0.3 µM) was 36.1%. For the same molecule, the viability, T/C (second compound 0.316 µM, first compound 0.000949 µM) was 65.4%, the viability, T/C (second compound 0.316 µM, first compound 0.003 µM) was 36.4% and the viability, T/C (second compound 0.316 µM, first compound 0.00949 µM) was 49.8%. For the same molecule, the viability, T/C (second compound 0.316 µM, first compound 0.03 µM) was 56.5%, the viability, T/C (second compound 0.316 µM, first compound 0.0949 µM) was 49.2% and the viability, T/C (second compound 0.316 µM, first compound 0.3 µM) was 34.7%. The viability, T/C (second compound 1 µM, first compound 0.000949 µM) was 48.6%, the viability, T/C (second compound 1 µM, first compound 0.003 µM) was 35.9% and the viability, T/C (second compound 1 µM, first compound 0.00949 µM) was 35.4%. The viability, T/C (second compound 1 µM, first compound 0.03 µM) was 38.2%, the viability, T/C (second compound 1 µM, first compound 0.0949 µM) was 53.3% and the viability, T/C (second compound 1 µM, first compound 0.3 µM) was 31.2%. It also gave a viability, T/C (second compound 3.16 µM, first compound 0.000949 µM) of 26.3%, a viability, T/C (second compound 3.16 µM, first compound 0.003 µM) of 28.7% and a viability, T/C (second compound 3.16 µM, first compound 0.00949 µM) of 22.4%. For the same molecule, the viability, T/C (second compound 3.16 µM, first compound 0.03 µM) was 22.9%, the viability, T/C (second compound 3.16 µM, first compound 0.0949 µM) was 25.6% and the viability, T/C (second compound 3.16 µM, first compound 0.3 µM) was 25.1%. The viability, T/C (second compound 10 µM, first compound 0.000949 µM) was 23%, the viability, T/C (second compound 10 µM, first compound 0.003 µM) was 21% and the viability, T/C (second compound 10 µM, first compound 0.00949 µM) was 20.7%. It also gave a viability, T/C (second compound 10 µM, first compound 0.03 µM) of 18.1%, a viability, T/C (second compound 10 µM, first compound 0.0949 µM) of 19.5% and a viability, T/C (second compound 10 µM, first compound 0.3 µM) of 13.5%.
